# Data published in publication PMC7334075 (Molecular carcinogenesis, 2020).
# Target: KRAS-G12V (Homo sapiens, UniProt P01116, G12V)
# Test: DSF
# Assay type: binding
structure (smiles),measurement,value
"C=C(C)[C@@H]1CC[C@]2(C)CC[C@]3(C)[C@H](CC[C@@H]4[C@@]5(C)CC[C@H](O)C(C)(C)[C@@H]5CC[C@]43C)[C@@H]12 [Lupeol, Lup-20(29)-en-3b-ol]",DSF (SYPRO Orange) with GDP-loaded protein; no Kd,(loaded with GDP) suggesting binding of Lupeol to both wt-KRAS and KRAS-^G12V protein
